In patent publication US4504580A, “Antibiotics produced by fermentation of a novel strain of Streptomyces hygroscopicus” (Bristol-Myers Company, priority 1983, dated 1985):
Values after ≈ are worked out from the molar mass of the structure shown. Read-outs that look alike come from different tables or passages of the source.

Legend:
Format in all cases: cell-based
[1] = system: Staphylococcus aureus D136; assay: MIC by serial two-fold agar dilution, S. aureus D136; conditions: Staphylococcus aureus, D136
Experimental: (§1) The minimum inhibitory concentrations (MIC) of Bu-2659A, B, C, D and E were determined for a variety of gram-positive and gram-negative bacteria by the serial two-fold agar dilution method using the Steer's multi-inoculating apparatus. The inoculum was standardized as a 10^4 dilution of an overnight culture of the test organisms in Heart Infusion Broth (Difco). […] Reference antibiotics utilized in these tests included commercially available neomycin as well as its components, neomycins B and C [as used herein, the term "neomycin" means the commercial product containing neomycins B and C at an approximate ratio of 7:3], paromomycin [the commercial product containing >90% of paromomycin I and <10% of paromomycin II] and ribostamycin.

[2] = system: gram-positive and gram-negative bacteria; assay: In vitro antibacterial spectra (MIC), overall comparison, Table 7; conditions: Table 7 organisms; for activity relative to Bu-2659A: as active as Bu-2659A
Experimental: as §1

[3] = system: Pseudomonas aeruginosa D15; assay: MIC by serial two-fold agar dilution, P. aeruginosa D15; conditions: Pseudomonas aeruginosa, D15
Experimental: as §1

Proteus rettgeri A15167 = assay: MIC by serial two-fold agar dilution, P. rettgeri A15167; conditions: Providencia rettgeri, A15167
Experimental: as §1

[4] = system: Pseudomonas aeruginosa A9930; assay: MIC by serial two-fold agar dilution, P. aeruginosa A9930; conditions: Pseudomonas aeruginosa, A9930
Experimental: as §1

Micrococcus flavus D12 = assay: MIC by serial two-fold agar dilution, M. flavus D12; conditions: Micrococcus flavus, D12
Experimental: as §1

[5] = system: Staphylococcus aureus 209P; assay: MIC by serial two-fold agar dilution, S. aureus 209P; conditions: Staphylococcus aureus, 209P
Experimental: as §1

[6] = system: Serratia marcescens A20019; assay: MIC by serial two-fold agar dilution, S. marcescens A20019; conditions: Serratia marcescens, A20019
Experimental: as §1

[7] = system: Staphylococcus aureus Smith; assay: MIC by serial two-fold agar dilution, S. aureus Smith; conditions: Staphylococcus aureus
Experimental: as §1

Proteus mirabilis A9906 = assay: MIC by serial two-fold agar dilution, P. mirabilis A9906; conditions: Proteus mirabilis, A9906
Experimental: as §1

[8] = system: Klebsiella pneumoniae D11; assay: MIC by serial two-fold agar dilution, K. pneumoniae D11; conditions: Klebsiella pneumoniae, D11
Experimental: as §1

Escherichia coli NIHJ = assay: MIC by serial two-fold agar dilution, E. coli NIHJ; conditions: Escherichia coli
Experimental: as §1

Proteus morganii A9553 = assay: MIC by serial two-fold agar dilution, P. morganii A9553; conditions: Morganella morganii, A9553
Experimental: as §1

[9] = system: Bacillus subtilis PCI 219; assay: MIC by serial two-fold agar dilution, B. subtilis PCI 219; conditions: Bacillus subtilis, PCI219
Experimental: as §1

Proteus vulgaris A9436 = assay: MIC by serial two-fold agar dilution, P. vulgaris A9436; conditions: Proteus vulgaris, A9436
Experimental: as §1

Escherichia coli Juhl = assay: MIC by serial two-fold agar dilution, E. coli Juhl; conditions: Escherichia coli
Experimental: as §1

[10] = system: Micrococcus luteus PCI 1001; assay: MIC by serial two-fold agar dilution, M. luteus PCI 1001; conditions: Micrococcus luteus, PCI1001
Experimental: as §1

Proteus mirabilis A9554 = assay: MIC by serial two-fold agar dilution, P. mirabilis A9554; conditions: Proteus mirabilis, A9554
Experimental: as §1

Escherichia coli JR88 = assay: MIC, aminoglycoside-resistant E. coli JR88; conditions: Escherichia coli, JR88
Experimental: as §1

[11] = Table 7, Mueller-Hinton agar, read-out: MIC

Row | Structure (SMILES) | MIC [1, 11] [µg/mL] | MIC [3, 11] [µg/mL] | MIC (Proteus rettgeri A15167; [11]) [µg/mL] | MIC [4, 11] [µg/mL] | MIC (Micrococcus flavus D12; [11]) [µg/mL] | MIC [5, 11] [µg/mL] | MIC [6, 11] [µg/mL] | MIC [7, 11] [µg/mL] | MIC (Proteus mirabilis A9906; [11]) [µg/mL] | MIC [8, 11] [µg/mL] | MIC (Escherichia coli NIHJ; [11]) [µg/mL] | MIC (Proteus morganii A9553; [11]) [µg/mL] | MIC [9, 11] [µg/mL] | MIC (Proteus vulgaris A9436; [11]) [µg/mL] | MIC (Escherichia coli Juhl; [11]) [µg/mL] | MIC [10, 11] [µg/mL] | MIC (Proteus mirabilis A9554; [11]) [µg/mL] | MIC [4] [µg/mL] | MIC [5] [µg/mL] | MIC [7] [µg/mL] | further results
1 | NC[C@H]1O[C@H](O[C@H]2[C@H](O[C@@H]3O[C@H](CO)[C@@H](O[C@H]4O[C@H](CN)[C@@H](O)[C@H](O)[C@H]4N)[C@H]3O)[C@@H](O)[C@H](O)C[C@@H]2N)[C@H](N)[C@@H](O)[C@@H]1O [Bu-2659B, 1-deamino-1-hydroxyneomycin C] | 6.3 (≈ 10.2 µM) | > 100 | 3.1 (≈ 5.04 µM) | > 100 | > 100 | 3.1 (≈ 5.04 µM) | 100 (≈ 162 µM) | 3.1 (≈ 5.04 µM) | 6.3 (≈ 10.2 µM) | 1.6 (≈ 2.6 µM) | 12.5 (≈ 20.3 µM) | 12.5 (≈ 20.3 µM) | 0.4 (≈ 0.65 µM) | 3.1 (≈ 5.04 µM) | 50 (≈ 81.2 µM) | > 100 | 6.3 (≈ 10.2 µM) |  |  |  | activity relative to Bu-2659A [2]: approximately 1/4
2 | NC[C@@H]1O[C@H](O[C@H]2[C@@H](O)[C@H](O[C@@H]3[C@@H](O)[C@H](O)C[C@H](N)[C@H]3O[C@H]3O[C@H](CO)[C@@H](O)[C@H](O)[C@H]3N)O[C@@H]2CO)[C@H](N)[C@@H](O)[C@@H]1O [Bu-2659C, 1-deamino-1-hydroxyparomomycin I] | 6.3 (≈ 10.2 µM) | 25 (≈ 40.5 µM) | 3.1 (≈ 5.03 µM) | 12.5 (≈ 20.3 µM) | > 100 | 3.1 (≈ 5.03 µM) | 6.3 (≈ 10.2 µM) | 6.3 (≈ 10.2 µM) | 3.1 (≈ 5.03 µM) | 1.6 (≈ 2.59 µM) | 6.3 (≈ 10.2 µM) | 6.3 (≈ 10.2 µM) | 0.8 (≈ 1.3 µM) | 1.6 (≈ 2.59 µM) | 25 (≈ 40.5 µM) | > 100 | 3.1 (≈ 5.03 µM) |  |  |  | activity relative to Bu-2659A [2]: approximately 1/4
3 | NC[C@H]1O[C@H](O[C@H]2[C@H](O[C@@H]3O[C@H](CO)[C@@H](O[C@H]4O[C@@H](CO)[C@@H](O)[C@H](O)[C@H]4N)[C@H]3O)[C@@H](O)[C@H](O)C[C@@H]2N)[C@H](N)[C@@H](O)[C@@H]1O [Bu-2659D, 1,6'"-dideamino-1,6'"-dihydroxyneomycin B] | 25 (≈ 40.5 µM) | > 100 | 3.1 (≈ 5.03 µM) | 50 (≈ 81.1 µM) | 100 (≈ 162 µM) | 6.3 (≈ 10.2 µM) | 100 (≈ 162 µM) | 25 (≈ 40.5 µM) | 6.3 (≈ 10.2 µM) | 1.6 (≈ 2.59 µM) | 12.5 (≈ 20.3 µM) | 12.5 (≈ 20.3 µM) | 1.6 (≈ 2.59 µM) | 3.1 (≈ 5.03 µM) | 50 (≈ 81.1 µM) | 100 (≈ 162 µM) | 6.3 (≈ 10.2 µM) |  |  |  | in vitro antibacterial activity, in words [2]: less active than components B and C
4 | NC[C@H]1O[C@H](O[C@H]2[C@H](O[C@@H]3O[C@H](CO)[C@@H](O)[C@H]3O)[C@@H](O)[C@H](O)C[C@@H]2N)[C@H](N)[C@@H](O)[C@@H]1O [Bu-2659E, 1-deamino-1-hydroxyribostamycin] | 50 (≈ 110 µM) | > 100 | 12.5 (≈ 27.4 µM) | > 100 | > 100 | 25 (≈ 54.9 µM) | > 100 | 50 (≈ 110 µM) | 25 (≈ 54.9 µM) | 12.5 (≈ 27.4 µM) | 50 (≈ 110 µM) | 25 (≈ 54.9 µM) | 3.1 (≈ 6.81 µM) | 12.5 (≈ 27.4 µM) | > 100 | > 100 | 12.5 (≈ 27.4 µM) |  |  |  | in vitro antibacterial activity, in words [2]: less active than components B and C
5 | NC[C@H]1O[C@H](O[C@H]2[C@H](O)[C@@H](O)[C@H](N)C[C@@H]2N)[C@H](N)[C@@H](O)[C@@H]1O [Neamine, neamine] |  |  |  |  |  |  |  |  |  |  |  |  |  |  |  |  |  | 400 (≈ 1240 µM) | 6.3 (≈ 19.5 µM) | 3.1 (≈ 9.62 µM) | MIC (Escherichia coli JR88): 12.5 µg/mL (≈ 38.8 µM); MIC [8]: 12.5 µg/mL (≈ 38.8 µM); MIC (Escherichia coli NIHJ): 12.5 µg/mL (≈ 38.8 µM); MIC [9]: 3.1 µg/mL (≈ 9.62 µM); MIC (Proteus vulgaris A9436): 6.3 µg/mL (≈ 19.5 µM); MIC (Proteus mirabilis A9554): 25 µg/mL (≈ 77.6 µM)
6 | NC[C@@H]1O[C@H](O[C@H]2[C@@H](O)[C@H](O[C@@H]3[C@@H](O)[C@H](N)C[C@H](N)[C@H]3O[C@H]3O[C@H](CN)[C@@H](O)[C@H](O)[C@H]3N)O[C@@H]2CO)[C@H](N)[C@@H](O)[C@@H]1O [Neomycin B, neomycin B] |  |  |  |  |  |  |  |  |  |  |  |  |  |  |  |  |  | 3.1 (≈ 5.04 µM) | 0.4 (≈ 0.651 µM) | 0.4 (≈ 0.651 µM) | MIC [1]: 0.4 µg/mL (≈ 0.651 µM); MIC [3]: 3.1 µg/mL (≈ 5.04 µM); MIC (Proteus rettgeri A15167): 1.6 µg/mL (≈ 2.6 µM); MIC (Micrococcus flavus D12): 1.6 µg/mL (≈ 2.6 µM); MIC [6]: 1.6 µg/mL (≈ 2.6 µM); MIC (Proteus mirabilis A9906): 0.8 µg/mL (≈ 1.3 µM); MIC [8]: 0.2 µg/mL (≈ 0.325 µM); MIC (Escherichia coli NIHJ): 1.6 µg/mL (≈ 2.6 µM); MIC (Proteus morganii A9553): 3.1 µg/mL (≈ 5.04 µM); MIC [9]: < 0.05 µg/mL; MIC (Proteus vulgaris A9436): 0.8 µg/mL (≈ 1.3 µM); MIC (Escherichia coli Juhl): 3.1 µg/mL (≈ 5.04 µM); MIC [10]: 0.8 µg/mL (≈ 1.3 µM); MIC (Proteus mirabilis A9554): 0.8 µg/mL (≈ 1.3 µM)
7 | NC[C@H]1O[C@H](O[C@H]2[C@H](O[C@@H]3O[C@H](CO)[C@@H](O[C@H]4O[C@H](CN)[C@@H](O)[C@H](O)[C@H]4N)[C@H]3O)[C@@H](O)[C@H](N)C[C@@H]2N)[C@H](N)[C@@H](O)[C@@H]1O [Neomycin C, neomycin C] |  |  |  |  |  |  |  |  |  |  |  |  |  |  |  |  |  | 50 (≈ 81.3 µM) | 0.8 (≈ 1.3 µM) | 1.6 (≈ 2.6 µM) | MIC [1]: 1.6 µg/mL (≈ 2.6 µM); MIC [3]: > 100 µg/mL; MIC (Proteus rettgeri A15167): 1.6 µg/mL (≈ 2.6 µM); MIC (Micrococcus flavus D12): 100 µg/mL (≈ 163 µM); MIC [6]: 6.3 µg/mL (≈ 10.2 µM); MIC (Proteus mirabilis A9906): 1.6 µg/mL (≈ 2.6 µM); MIC [8]: 0.4 µg/mL (≈ 0.651 µM); MIC (Escherichia coli NIHJ): 3.1 µg/mL (≈ 5.04 µM); MIC (Proteus morganii A9553): 3.1 µg/mL (≈ 5.04 µM); MIC [9]: < 0.05 µg/mL; MIC (Proteus vulgaris A9436): 1.6 µg/mL (≈ 2.6 µM); MIC (Escherichia coli Juhl): 12.5 µg/mL (≈ 20.3 µM); MIC [10]: 50 µg/mL (≈ 81.3 µM); MIC (Proteus mirabilis A9554): 3.1 µg/mL (≈ 5.04 µM)
